For 5 compounds, speed of sound and mass density results are on record in the NIST ThermoML archive (doi:10.1016/j.jct.2019.05.023).

Each structure is given as a SMILES string. Numbers after ± are expanded uncertainties.

For data set [1] the following is noted: 101.3 kPa, Liquid; for speed of sound: Frequency=3 MHz, Single path-length method; for mass density: Vibrating tube method.
Data set [2] in a line: xn = mol fraction of the nth substance listed. The note with it: 101.3 kPa, Liquid, x1 = 1; for speed of sound: Frequency=3 MHz, Single path-length method; for mass density: Vibrating tube method.

`CCCOCCO` [2-propoxyethanol]: the speed of sound in data set [1] (298.15 K) is 1301 ± 10 m/s; in data set [1] (303.15 K) it was 1283 ± 10 m/s; in data set [1] (308.15 K), 1266 ± 10 m/s; in data set [1] (313.15 K) it was 1248 ± 10 m/s; in data set [1] (318.15 K), 1231 ± 10 m/s. Moreover, the mass density in data set [1] (298.15 K) stood at 908 ± 2 kg/m3; in data set [1] (303.15 K), 903 ± 2 kg/m3; in data set [1] (308.15 K) it was 899 ± 2 kg/m3; in data set [1] (313.15 K), 895 ± 2 kg/m3; in data set [1] (318.15 K), 890 ± 2 kg/m3.
As to `CCn1cc[n+](C)c1.O=S(=O)([O-])C(F)(F)F` [1-ethyl-3-methylimidazolium trifluoromethanesulfonate], the speed of sound in data set [1] (298.15 K) is listed as 1436 ± 10 m/s; in data set [1] (303.15 K), 1425 ± 10 m/s; in data set [1] (308.15 K), 1413 ± 10 m/s; in data set [1] (313.15 K) it was 1402 ± 10 m/s; in data set [1] (318.15 K), 1391 ± 10 m/s. Moreover, the mass density in data set [1] (298.15 K) was 1383 ± 2 kg/m3; in data set [1] (303.15 K), 1379 ± 2 kg/m3; in data set [1] (308.15 K) it was 1374 ± 2 kg/m3; in data set [1] (313.15 K), 1370 ± 2 kg/m3; in data set [1] (318.15 K), 1366 ± 2 kg/m3.
On to `CCn1cc[n+](C)c1.O=S(=O)([O-])C(F)(F)F` [1-ethyl-3-methylimidazolium trifluoromethanesulfonate] + CCCOCCO, for which the speed of sound in data set [2] (298.15 K) was 1436 ± 10 m/s; in data set [2] (303.15 K), 1425 ± 10 m/s; in data set [2] (308.15 K), 1413 ± 10 m/s; in data set [2] (313.15 K), 1402 ± 10 m/s; in data set [2] (318.15 K), 1391 ± 10 m/s. The mass density in data set [2] (298.15 K) is listed as 1383 ± 2 kg/m3; in data set [2] (303.15 K), 1379 ± 2 kg/m3; in data set [2] (308.15 K) it was 1374 ± 2 kg/m3; in data set [2] (313.15 K), 1370 ± 2 kg/m3; in data set [2] (318.15 K) it was 1366 ± 2 kg/m3.
On to `CCOCCO` [2-ethoxyethan-1-ol], for which the speed of sound is 1304 ± 10 m/s in data set [1] (298.15 K); 1287 ± 10 m/s in data set [1] (303.15 K); 1270 ± 10 m/s in data set [1] (308.15 K); 1252 ± 10 m/s in data set [1] (313.15 K); 1234 ± 10 m/s in data set [1] (318.15 K). The mass density in data set [1] (298.15 K) amounted to 926 ± 2 kg/m3; in data set [1] (303.15 K) it was 921 ± 2 kg/m3; in data set [1] (308.15 K), 917 ± 2 kg/m3; in data set [1] (313.15 K), 912 ± 2 kg/m3; in data set [1] (318.15 K), 907 ± 2 kg/m3.
Take `CCn1cc[n+](C)c1.O=S(=O)([O-])C(F)(F)F` [1-ethyl-3-methylimidazolium trifluoromethanesulfonate] + CCOCCO: the speed of sound in data set [2] (298.15 K) is given as 1436 ± 10 m/s; in data set [2] (303.15 K), 1425 ± 10 m/s; in data set [2] (308.15 K), 1413 ± 10 m/s; in data set [2] (313.15 K), 1402 ± 10 m/s; in data set [2] (318.15 K) it was 1391 ± 10 m/s. Also, the mass density in data set [2] (298.15 K) came to 1383 ± 2 kg/m3; in data set [2] (303.15 K), 1379 ± 2 kg/m3; in data set [2] (308.15 K) it was 1374 ± 2 kg/m3; in data set [2] (313.15 K), 1370 ± 2 kg/m3; in data set [2] (318.15 K), 1366 ± 2 kg/m3.

The term speed of sound denotes how fast a sound wave travels through the sample. The term mass density denotes the mass of a sample divided by its volume.
